Data set [1] in a line: Plasma and liver concentration of antiviral peptides after oral gavage in mice. The following applies: for level at time molar at 1 h / level at time molar at 2.5 h / level at time molar at 0.5 h / level at time molar at 2 h / level at time molar at 4 h: female, mouse, po; for level at time molar at 1 h / level at time molar at 2.5 h: 72 mg/kg; for level at time molar at 0.5 h / level at time molar at 2 h / level at time molar at 4 h: 60 mg/kg. It counts as in vivo, female mice.

A further data set deals with HCV replicon. The following applies: cellular HCV replicon assay; ref Bradford and Cowan, 2012; cited from earlier work.
Data set [2] in a line: Pharmacokinetics of TCMCB07 in anesthetized rats: plasma and bile levels. Format: in vivo, Sprague-Dawley rats.
In data set [3] the test system is rats given LPS to induce cachexia. Briefly: LPS. It counts as in vivo, rat. As to conditions: for body weight as percent of pre-LPS baseline (Fig 1 Panel D) / food intake (Fig 1 Panel C): rats given LPS, peptide IP at 2mg/kg, 24 hours following challenge, 8/group; for oral anticachexia activity: LPS challenge, oral route of peptide administration.
In a further data set the test system is Lewis sarcoma rat model. Briefly: Lewis sarcoma rat cancer cachexia model. Format: in vivo. The following applies: tumor-bearing rats, SC; for summary 6-Day food intake: two daily doses.
The conditions of data set [4]: ref Iusuf et al., 2008; cited from earlier work.
The conditions of data set [5]: ref Gallagher et al., 2016, cited from earlier work; for plasma half-life: separate experiment, in vitro or in vivo not stated.
For data set [6], the system named is orthotopic human breast cancer cell line transplant (cell line MDA-MB-231). The following applies: ref Gallagher et al., 2016; cited from earlier work.
Data set [7] deals with hepatitis C virus (HCV) RNA. Briefly: Standard solution assays of anti-hepatitis C activity. Format: biochemical.

A word on the Tmax: it is the time at which the peak concentration occurs.

Where two headings read alike, the source gives them in different places. Bridge positions count the residues as written; N and C are the ends. Square brackets hold non-standard residues; d marks the D form. Ends that are not written are not given here. Peptide text beside a SMILES is read from it. d2Nal = N[C@H](Cc1ccc2ccccc2c1)C(=O)O; Nle = CCCC[C@H](N)C(=O)O

As for “GGHY[dR]FK [Metallo-drug 2-Cu, reference compound]”, in data set [1] (mice, oral gavage, also short circulating half-life and poor liver uptake stated), the oral availability entry was “no oral availability”. Besides, the antiviral activity result in the data set with HCV replicon is given as “confirmed”.

Turning to `CCCC[C@H](NC(C)=O)C(=O)N[C@H]1CC(=O)NCCCC[C@@H](C(=O)N[C@@H](C(=O)N2CCC[C@@H]2C(N)=O)C(C)C)NC(=O)[C@H](Cc2c[nH]c3ccccc23)NC(=O)[C@H](CCCN=C(N)N)NC(=O)[C@@H](Cc2ccc3ccccc3c2)NC(=O)[C@@H]2CCCN2C1=O` [TCMCB07] (Ac-[Nle]DP[d2Nal]RWK[dV][dP]-NH2; lactam 2-7), the Tmax in data set [2] (Sprague-Dawley, rat, plasma, sc, 3 mg/kg) was 2.5 h. The “in vivo mechanism of clearance” value in data set [2] (anesthetized rats, 3mg/kg SC (Fig. 3)) was “hepatic blood-to-bile transport”.

On to `CCCC[C@H](NC(C)=O)C(=O)N[C@H]1CC(=O)NCCCC[C@@H](C(=O)N[C@@H](C(=O)N2CCC[C@@H]2C(N)=O)C(C)C)NC(=O)[C@H](Cc2c[nH]c3ccccc23)NC(=O)[C@H](CCCNC(=N)N)NC(=O)[C@@H](Cc2ccc3ccccc3c2)NC(=O)[C@@H]2CCCN2C1=O` [TCMCB07] (Ac-[Nle]DP[d2Nal]RWK[dV][dP]-NH2; lactam 2-7), for which, in data set [3], the “body weight as percent of pre-LPS baseline (Fig 1 Panel D)” value (from here on “body weight as percent”) is on record as “produced a significant weight gain” and the “food intake (Fig 1 Panel C)” value is “stimulated appetite”. In addition, the oral anticachexia activity entry in data set [3] (rats) is “shown to have oral anticachexia activity”. Moreover, in the data set on Lewis sarcoma rat model (1.5 and 3 mg/kg BW/day, data not shown), the “tumor weight / tumor growth” value is “no effect on tumor growth”. Moreover, the “summary 6-Day food intake” value in the data set with Lewis sarcoma rat model (total 1.5 mg/kg BW/day (LB07)) is on record as “not different than Sham/saline controls”. Also, the “summary 6-Day food intake” value in the data set on Lewis sarcoma rat model (total 3mg/kg BW/day (HB07)) is “not different than Sham/saline controls”.

Take “Asp-Arg-Val-Tyr-Ile-His-Pro-OH [angiotensin^1-7, reference compound]”: the plasma half-life was about 0.5 h in [4] and 0.5 h in data set [5]. For the same molecule, the oral activity result in data set [6] is recorded as “not orally active”.

As for “Ac-Nle-c(Asp-Arg-Val-Tyr-Ile-His-Pro-Lys)-D-Val-D-Pro-NH2 (sidechain bridge or staple) [TCANG05]”, the plasma half-life in data set [5] is 50 h. Moreover, the “stability compared to angiotensin 1-7” value in data set [5] (using in vitro and in vivo assays) is on record as “greatly enhanced stability”. Moreover, in data set [6], the oral activity result was “orally active”.

With “Ac-Nle-c[Asp-Pro-D-Nal(2′)-Arg-Trp-Lys]-β-Pro-β^2-Val-NH2 (sidechain bridge or staple) [TCMCB05]”, in data set [3], the “body weight as percent” value was “produced a significant weight gain” and the “food intake (Fig 1 Panel C)” value is on record as “stimulated appetite”.

For `CC(=O)NCC(=O)NCC(=O)N[C@@H](Cc1c[nH]cn1)C(=O)N[C@H]1CC(=O)NCCCC[C@@H](C(=O)N[C@@H](C(=O)N2CCC[C@@H]2C(N)=O)C(C)C)NC(=O)[C@H](CCCCN)NC(=O)[C@H](Cc2ccccc2)NC(=O)[C@H](CCCNC(=N)N)NC(=O)[C@H](Cc2ccc(O)cc2)NC1=O` [TCMP01] (Ac-GGHDYRFKK[dV][dP]-NH2; lactam 4-9), in data set [1] (liver), the level at time molar at 1 h was 14 nM and the level at time molar at 2.5 h is 4 nM. Further, in data set [1] (plasma), the level at time molar at 1 h stood at 1000 nM and the level at time molar at 2.5 h worked out at 24 nM. In addition, in data set [7], the “solution antihepatitis activity relative to the parent peptide Metallo-drug 2-Cu” value is “within a factor of two”.

Consider “Ac-Nle-^1 c(Asp-Pro-D-Nal2’-Arg-Trp-Lys)-D-Pro-D-Val-NH2 (sidechain bridge or staple) [TCMCB02]”, for which, in data set [3] (rats), the oral anticachexia activity result is given as “no oral anticachexia activity”. For the same molecule, the “overnight body weight gain” value in data set [3] (rats, parenteral peptide after parenteral LPS, end of 12 hr dark cycle, n=6) is on record as about 5%.

In [1] (liver), `CC(=O)NCC(=O)NCC(=O)N[C@@H](Cc1c[nH]cn1)C(=O)N[C@H]1CC(=O)NCCCC[C@@H](C(=O)N[C@@H](C(=O)N2CCC[C@@H]2C(N)=O)C(C)C)NC(=O)[C@H](CCCCN)NC(=O)[C@H](Cc2ccccc2)NC(=O)[C@H](CCCNC(=N)N)NC(=O)[C@H](Cc2ccc(O)cc2)NC(=O)[C@@H]2CCCN2C1=O` [TCMP03] (Ac-GGHDPYRFKK[dV][dP]-NH2; lactam 4-10) gave a level at time molar at 0.5 h of 43 nM, a level at time molar at 2 h of 30 nM and a level at time molar at 4 h of 4 nM. In data set [1] (plasma), the level at time molar at 0.5 h is 2910 nM, the level at time molar at 2 h was 75700 nM and the level at time molar at 4 h stood at 384 nM. Further, the “enhancement of hepatic (target tissue) uptake relative to TCMP01” value in data set [1] (mice, oral gavage, Table 3) was 4 fold. Moreover, in data set [7], the “solution antihepatitis activity relative to the parent peptide Metallo-drug 2-Cu” value is reported as “within a factor of two”.

For the molecule “Ac-Nle-c[Asp-Pro-D-Nal(2′)-Arg-Trp-Lys]-β-Pro-β^3-Val-NH2 (sidechain bridge or staple) [TCMCB06]”, the “body weight as percent” value in data set [3] is “no weight gain”.

The record behind these values is doi:10.1101/507434v1 (bioRxiv, 2018).
